Laboratory results published in patent US5891871A, “Substituted 2,3-benzodiazepin-4-ones and the use thereof” (CoCensys, Inc., priority 1997, dated 1999).

Key:
[1] = literature; cited from earlier work
[2] = literature; cited from earlier work; remark: listed apart in the source
AMPA receptor = AMPA receptor antagonism / positive modulation: AMPA induced current in Xenopus oocytes expressing rat whole brain poly(A)+ RNA (electrophysiology); assay type: cell-based; conditions: for IC50: oocytes expressing rat brain AMPA receptors; for AMPA positive potentiation, 200% @ μM: concentration at which AMPA current is potentiated 200%
Protocol: The novel substituted 2,3-benzodiazepin-4-ones were assessed by electrophysiological assays in Xenopus oocytes expressing rat whole brain poly(A)^+ RNA (see Keana et al, J. Med. Chem. 38. 4367-4379 (1995)) or in cultured rat cortical neurons (see Woodward et. al. Mol. Pharmacol. 47: 568-581 (1995)) for AMPA receptor activity. Compounds which are useful for treating or preventing the adverse consequences of stroke, hypoglycemia, neurodegenerative disorders, anxiety, epilepsy or psychosis, or which induce analgesia, will inhibit the currents across the membranes of the oocyte expressing AMPA receptors. However, if the compound potentiates currents across the oocyte membrane, then the compound is expected to be useful in enhancing cognition or treating schizophrenia or neurodegenerative diseases such as Parkinson's Disease.
The ability of AMPA receptor antagonists or positive modulators to inhibit or enhance AMPA induced current in oocyte expressing neuronal AMPA receptor was determined using procedures fully described in Keana et al, J. Med. Chem. 38: 4367-4379 (1995). […] The compounds of examples 22, 30 and 31 are positive modulators of AMPA receptor. They potentiate the AMPA current 200% at a concentration of 11, 10 and 11 μM, respectively.

mice = experiment: Maximal Electroshock-induced Seizure (MES) test; assay type: in vivo; conditions: for ED50: Mus musculus, mice, iv; for anticonvulsant activity in the MES experiment: in words
Protocol: Seizures are induced by application of current (50 mA, 60 pulses/sec, […], 1 sec duration, .c.) through saline-coated corneal electrodes using a Ugo Basile ECT device (Model 7801). […] A tonic seizure is defined as a hindlimb extension in excess of 90 degrees from the plane of the body. Results are treated in a quintal manner.

[3] = literature; cited from earlier work; remark: listed apart in the source
rat = conditions: literature; cited from earlier work
AMPA receptors = conditions: literature; cited from earlier work
[4] = literature; cited from earlier work; remark: listed apart in the source

IC50 (AMPA receptor) [µM]	Compound	AMPA positive potentiation, 200% @ μM (AMPA receptor) [µM]	further results
	CC1Cc2cc3c(cc2C(c2ccc(N)cc2)=NN1)OCO3 (centres unmarked)		central nervous effect [1]: CNS stimulating activity
	O=C(c1ccc2c(c1)OCO2)N1CCCCC1 [BDP, 1-(1,3-benzodioxol-5-ylcarbonyl) piperidine]		memory enhancement [2]: enhance memory
15	Cc1ccc(C2=NNC(=O)Cc3cc4c(cc32)OCO4)cc1 [Example 9, 7,8-Methylenedioxy-1-(4-methylphenyl)-3,5-dihydro-2,3-benzodiazepin-4(4H)-one]		
3	Nc1ccc(C2=NNC(=O)Cc3cc4c(cc32)OCO4)cc1 [Example 14, 1-(4-Aminophenyl)-7,8-methylenedioxy-3,5-dihydro-2,3-benzodiazepin-4(4H)-one]		ED50 (mice): 2.4 mg/kg; anticonvulsant activity in the MES experiment (mice): active as anticonvulsants
26	CNC(=O)N1N=C(c2ccccc2)c2cc3c(cc2CC1=O)OCO3 [Example 15, 7,8-Methylenedioxy-3-methylaminocarbonyl-1-phenyl-3,5-dihydro-2,3-benzodiazepin-4(4H)-one]		
	CC(C)N1N=C(c2ccccc2)c2cc3c(cc2CC1=O)OCO3 [Example 18, 3-Isopropyl-7,8-methylenedioxy-1-phenyl-3,5-dihydro-2,3-benzodiazepin-4(4H)-one]	30	
	CCC(C)N1N=C(c2ccccc2)c2cc3c(cc2CC1=O)OCO3 (centres unmarked) [Example 21, 3-(2-Butyl)-7,8-methylenedioxy-1-phenyl-3,5-dihydro-2,3-benzodiazepin-4(4H)-one]	12	
	CCC(CC)N1N=C(c2ccccc2)c2cc3c(cc2CC1=O)OCO3 [Example 22, 7,8-Methylenedioxy-3-(3-pentyl)-1-phenyl-3,5-dihydro-2,3-benzodiazepin-4(4H)-one]	11	
	CCCC(C)N1N=C(c2ccccc2)c2cc3c(cc2CC1=O)OCO3 (centres unmarked) [Example 25, 7,8-Methylenedioxy-3-(2-pentyl)-1-phenyl-3,5-dihydro-2,3-benzodiazepin-4(4H)-one]	160	
	O=C1Cc2cc3c(cc2C(c2ccccc2)=NN1C1CCCCCC1)OCO3 [Example 30, 3-Cycloheptyl-7,8-methylenedioxy-1-phenyl-3,5-dihydro-2,3-benzodiazepin-4(4H)-one]	10	
	O=C1Cc2cc3c(cc2C(c2ccccc2)=NN1C1CCCCC1)OCO3 [Example 31, 3-Cyclohexyl-7,8-methylenedioxy-1-phenyl-3,5-dihydro-2,3-benzodiazepin-4(4H)-one]	11	
	CCCC(CC)N1N=C(c2ccccc2)c2cc3c(cc2CC1=O)OCO3 (centres unmarked) [Example 33, 3-(3-Hexyl)-7,8-methylenedioxy-1-phenyl-3,5-dihydro-2,3-benzodiazepin-4(4H)-one]	24	
4	CC1C(=O)NN=C(c2ccc(N)cc2)c2cc3c(cc21)OCO3 (centres unmarked) [Example 45, 1-(4-Aminophenyl)-5-methyl-7,8-methylenedioxy-3,5-dihydro-2,3-benzodiazepin-4(4H)-one]		
10	CC1C(=O)NN=C(c2ccc3c(c2)OCO3)c2cc3c(cc21)OCO3 (centres unmarked) [Example 48, 5-Methyl-1-(3,4-methylenedioxyphenyl)-7,8-methylenedioxy-3,5-dihydro-2,3-benzodiazepin-4(4H)-one]		
20	COc1cc(C2=NNC(=O)Cc3cc4c(cc32)OCO4)ccc1[N+](=O)[O-] [Example 56, 7,8-Methylenedioxy-1-(3-methoxy-4-nitrophenyl)-3,5-dihydro-2,3-benzodiazepin-4(4H)-one]		
1	Cc1cc(C2=NNC(=O)Cc3cc4c(cc32)OCO4)ccc1N [Example 61, 1-(4-Amino-3-methylphenyl)-7,8-methylenedioxy-3,5-dihydro-2,3-benzodiazepin-4(4H)-one]		ED50 (mice): 2.7 mg/kg; anticonvulsant activity in the MES experiment (mice): active as anticonvulsants
4	Nc1ccc(C2=NNC(=O)Cc3cc4c(cc32)OCO4)c(Cl)c1 [Example 62, 1-(4-Amino-2-chlorophenyl)-7,8-methylenedioxy-3,5-dihydro-2,3-benzodiazepin-4(4H)-one]		ED50 (mice): 3.2 mg/kg; anticonvulsant activity in the MES experiment (mice): active as anticonvulsants
0.8	Nc1ccc(C2=NNC(=O)Cc3cc4c(cc32)OCO4)cc1Cl [Example 63, 1-(4-Amino-3-chlorophenyl)-7,8-methylendioxy-3,5-dihydro-2,3-benzodiazepin-4(4H)-one]		
	CC1=NN=C(c2ccc(N)cc2)c2cc3c(cc2C1)OCO3.Cl [GYKI 52466, 1-(4-aminophenyl)-4-methyl-7,8-methylenedioxy-5H-2,3-benzodiazepine-hydrochloride]		anticonvulsant activity [3]: effective anticonvulsant; neuroprotection in rat global ischemia (rat): effective neuroprotective agent
	CC(=O)N1N=C(c2ccc(N)cc2)c2cc3c(cc2C[C@H]1C)OCO3 [LY300164]		AMPA receptor antagonism (AMPA receptors): noncompetitive antagonist of AMPA receptors; anticonvulsant activity [3]: anticonvulsant activity
	NS(=O)(=O)c1cccc2c1c([N+](=O)[O-])cc1nc(O)c(O)nc12 [NBQX, 2,3-dihydroxy-6-nitro-7-sulfamoylbenzo[f]quinoxaline]		prevention of global and focal ischemic damage [4]: effective in preventing global and focal ischemic damage
